Results as given in patent publication US7271198B2, “Method of treating autoimmune diseases” (Wake Forest University, priority 2000, dated 2007).

Assays:
IL-10 mRNA = experiment: RT-PCR of IL-10 transcript in SLE T cells; type: cell-based, human
Method: (§1) T cells were cultured in the absence or presence of increasing concentrations of TSA for 18 hr in 5% CO2 at 37° C. RNA was isolated, cDNAs were prepared, and RT-PCR was performed as previously detailed (D. Laxminarayana, et al., J. Clin. Invest. 92, 2207 (1993)). The primers used were: […]
(§2) The reaction mixtures were subjected to 30 cycles of denaturation (94° C., 1 min) and annealing for 1 min at 53° C. (CD154), […] (GAPDH) and 55° C. (IL-10 and IFN-γ). Extension was for 2 min at 72° C. with a final extension of 7 min at 72° C. using a DNA thermal cycler (Perkin-Elmer).
(§3) To determine whether TSA could down-regulate IL-10, a dose-response analysis was performed. […] However, when SLE T cells were cultured in the presence of TSA for 18 hr, no detectable IL-10 transcripts were identified (FIG. 2C, lanes 3, 6, 9). When IL-10 transcripts from all eight SLE subjects were quantified relative to GAPDH transcripts, TSA inhibited expression of IL-10 mRNA by 71% (FIG. 2D; P=0.029). […] IL-10 and IFN-γ protein production were quantified by ELISA (R & D Systems, Minneapolis, Minn.). […] Thus, like CD154, TSA was able to block expression of IL-10 transcript, abolishing IL-10 production by SLE T cells.

IL-10 protein = IL-10 protein production by SLE T cells (ELISA); type: cell-based, human
Method: as §3

IFN-γ transcript = experiment: RT-PCR of IFN-γ transcript in SLE T cells; type: cell-based, human
Method: as §1, §2
Low production of IFN-γ by SLE T cells may reflect down-regulation of gene expression (B. S. Handwerger, et al., in Lupus: Molecular and Cellular Pathogenesis, G. M. Kammer and G. C. Tsokos, Eds. (Humana Press, Totowa, N.J., 1999), chap. 21; E. Hagiwara, et al., Arthritis Rheum. 39, 379 (1996)). To establish whether TSA can up-regulate IFN-γ expression, SLE T cells were treated for 18 hr in the absence or presence of TSA. During that time, TSA induced a three-fold increase in IFN-γ transcript compared to untreated cells (FIG. 3A, lanes 1 and 7, and FIG. 3B). When T cells were activated with PMA+IO in the absence of TSA, peak IFN-γ transcript expression increased 13-fold at 1 hr over basal levels relative to GAPDH transcript, but waned thereafter. […]

TGF-β1 protein = TGF-β1 protein secretion by PBMCs; type: cell-based, human
Method: Gene expression of TGF-β1 was tested to determine if the gene expression is suppressed by deacetylation of histones in SLE. In this determination, SLE PBMCs or isolated T cells were treated with the histone deacetylase inhibitors (HDIs), TSA or SAHA, for 18hr. […] Subsequently, semi-quantitative PCR was performed to determine the amounts of […] transcripts in SLE and control T cells treated with vehicle or TSA (1000 ng/ml). […] There is no change in GAPDH transcript in normal and SLE T cells after treatment of HDIs. Increased TGF-β1 transcript was associated with a subsequent increase in TGF-β1 protein secretion by SLE PBMCs. When compared to vehicle treated PBMCs, total TGF-β1 protein in culture supernatants from SLE PBMCs increased by approximately 30%. In contrast, there was no increase in total TGF-β1 secretion in TSA treated cells in normal healthy controls. Similar results may be obtained by SAHA.

SP1 binding = SP1 binding at TGF-β1 promoter; type: cell-based, human; conditions: after treatment with TSA
Description: Exposure of SLE PBMCs to TSA and SAHA yielded an eight-fold increase in TGF-β1 transcript and a 30% rise in the synthesis of TGF-β1 protein. This enhanced transcriptional activation was temporally associated with increased acetylation of both H3 and H4 nucleosomal histones. […] The increase in total acetylated histones was not global; neither GAPDH nor G6PD genes were transcriptionally activated. […] Thus, the capacity of HDIs to increase the endogenous synthesis of TGF-β1 raises the possibility that these inhibitors could be therapeutic candidates for the treatment of SLE, atherosclerosis, and osteoporosis in addition to cancers.

[1] = system: IL-12 p35 and p40 transcripts; experiment: IL-12 p35 and p40 transcripts in MRL/lpr splenocytes; type: cell-based, mouse
Method: In this study, the question of whether TSA down-regulates transcription of both IL-12 p35 and p40 subunit mRNA was investigated. […] Splenocytes were stimulated with LPS and IFN-γ for 6 or 18 hr. […] When splenocytes were preincubated with TSA or SAHA for 18 hr and then stimulated with LPS and IFN-γ IL-12 p35 and p40 transcripts were undetectable (FIGS. 9B–D).

IL-12 p40 protein = IL-12 p40 protein secretion by MRL/lpr splenocytes; type: cell-based, mouse; conditions: splenocytes stimulated with LPS and IFN-γ 24 hr; stimulated control 45.3±9.1; p=0.003
Method: When splenocytes were activated with LPS (100 μg/ml) and IFN-γ 100U/ml) for 24 hr the mean (±SEM) IL-12 p40 secretion was 45.3±9.1 pg/ml.

iNOS mRNA = iNOS mRNA induction in MRL/lpr splenocytes; type: cell-based, mouse; conditions: splenocytes from 10 wk old mice, LPS and IFN-γ 24 hr
Description: Excessive production of nitric oxide (NO) is crucial to the initiation and maintenance of glomerulonephritis in MRL/lpr mice. Pharmacologic inhibition of NO synthesis in MRL/lpr mice abrogates disease progression. In examining whether HDIs could suppress inducible nitric oxide synthetase (iNOS), splenocytes from 10 wk old mice were stimulated in the presence or absence of TSA or SAHA with LPS and IFN-γ for 24 hr. […] To determine whether HDIs could suppress nitric oxide secretion by mesangial cells, mesangial cells were stimulated with LPS ([…]) in the presence of vehicle or TSA for 24 hr. The supernatant from the cell culture was assayed for nitric oxide.

SMILES: CC(/C=C/C(=O)NO)=C\[C@@H](C)C(=O)c1ccc(N(C)C)cc1 [TSA, Trichostatin A]
- TSA concentration at which no detectable IL-10 mRNA was identified (IL-10 mRNA; SLE T cells, dose-response, RT-PCR): 700 to 800 ng/mL
- inhibition of expression of IL-10 mRNA (IL-10 mRNA; eight SLE subjects, TSA 1000 ng/ml 18 hr, relative to GAPDH, P=0.029): 71%
- inhibition of IL-10 synthesis (IL-10 protein; SLE T cells, at 24 hr): complete inhibition
- inhibition of IL-10 production (IL-10 protein; SLE T cells, within 6 hr): 90%
- TSA concentration of maximal inhibition of IL-10 protein production (IL-10 protein; T cells from eight SLE subjects, 18 hr): 300 ng/mL
- peak increase in IFN-γ mRNA over untreated cells relative to GAPDH (IFN-γ transcript; SLE T cells activated with PMA+IO in presence of TSA, at 6 hr, P=0.031): 37 fold
- increase in IFN-γ transcript compared to untreated cells (IFN-γ transcript; SLE T cells, TSA 18 hr, not activated): three-fold
- rise in the synthesis of TGF-β1 protein (TGF-β1 protein; SLE PBMCs exposed to TSA and SAHA (summary statement)): 30%
- increase of total TGF-β1 protein in culture supernatants (TGF-β1 protein; SLE PBMCs, compared to vehicle treated PBMCs): approximately 30%
- total TGF-β1 secretion (TGF-β1 protein; TSA treated cells of normal healthy controls): no increase
- SP1 binding after localized acetylation of the TGF-β1 promoter (SP1 binding): not associated with a concomitant increase
- LPS and IFN-γ induced IL-12 p35 and p40 transcripts ([1]; splenocytes from 10-wk old MRL/lpr mice preincubated 18 hr, stimulated 6 or 18 hr): undetectable
- TSA concentration that completely suppressed constitutive IL-12 p35 and p40 transcripts ([1]; splenocytes from 24-wk MRL/lpr mice): above 100 ng/ml
- IL-12 p40 secretion (mean±SEM) (IL-12 p40 protein): 1.5 ± 1.4 pg/mL
- iNOS mRNA induction (iNOS mRNA): able to suppress iNOS mRNA induction
